The source of these data is patent US11702442B2, “Cyclic dinucleotide compounds as sting agonists” (The Regents of the University of California, priority 2019, dated 2023).

In assay [1] the test system is STING pathway. As to the kind of experiment: IRF3 phosphorylation in RAW 264.7 cells (immunoblot pIRF3 vs β-actin). Type of assay: cell-based, murine. Particulars: 2 h after transfection; for IRF3 phosphorylation (pIRF3), concentration dependence: RAW 264.7, 1, 5 and 10 μM CDN. The method, then: FIGS. 2A-2B show IRF3 phosphorylation induced by c-di-GMP and its analogues. […] 1, 5 and 10 μM of each CDN was used to transfect RAW 264.7 cells. Cells were lysed with NP-40 lysis buffer 2 h post transfection, 20 μg of total protein was loaded on SDS-polyacrylamide gel. Proteins were transferred to PVDF membrane after gel electrophoresis, and immunoblotted against pIRF3 and β-actin. […] The y-axis indicates relative intensity of pIRF3 compare to β-actin.
To analyze the immunostimulatory effects of all synthetic CDNs in greater detail, RAW 264.7 cells were treated with various concentrations of c-di-GMP, c-di-tzGMP, c-di-thGMP, c-GthGMP and c-GtzGMP and the phosphorylation of IRF3 to pIRF3 was evaluated. CDNs were thus transfected into RAW 264.7 murine cells with digitonin as described in previous studies.[7b,16] Cells were then lysed with NP-40 buffer 2 h after transfection, and total protein was collected for immunoblotting against phosphorylated IRF3 (pIRF3) and β-actin. […] Two other biological replicates produced similar trends (See FIG. S2 in Yi et al, ChemBioChem, Volume 21 (2020)).
Immunoblotting. RAW 264.7 cells were plated on 24-well plates (5×10^5 cells per well) and incubate at 37° C. for 48 h. Cells were then transfected with 1-10 μM of CDN in a permeabilization buffer containing 10 μg/mL digitonin, 50 mM HEPES, pH 7, 100 mM KCl, 3 mM MgCl2, 85 mM sucrose, 1 mM ATP, 0.1 mM DTT, 0.2% BSA for 30 mins at 37° C., then incubated with regular growth medium for 2 h. Cells were lysed with NP-40 lysis buffer containing protease inhibitor cocktail (Roche), PhosSTOP (Roche) and PMSF, and total protein was collected and quantified by BCA assay. Protein extracts were resolved by SDS-PAGE with 7.5% gel and transferred to PVDF membrane. Proteins were detected with the following primary antibodies: rabbit anti-pIRF3 monoclonal antibody (Cell Signaling Technology), mouse anti-β actin monoclonal antibody (Sigma-Aldrich).
A general note: Immunoblotting shows a protein as a band on a membrane.

Assay [2] deals with STING pathway. As to the kind of experiment: IFN-β mRNA production in RAW 264.7 cells by RT-qPCR. Type of assay: cell-based, murine. Conditions: for IFN-β mRNA production / IFN response: RAW 264.7, 1, 5, 10 μM CDN, 2, 4, 6 h; for time post transfection of highest IFN-β mRNA production: RAW 264.7, 1, 5 and 10 μM CDN, 2, 4 and 6 h tested; for order of IFN-β induction: RAW 264.7, RT-qPCR, FIG. 3. Here is the method: FIGS. 3A-3C provide IFN data. […] RAW 264.7 cells were transfected with 1, 5, 10 μM of c-di-GMP, c-di-^tzGMP, c-G^thGMP, c-di-G^thGMP and c-G^tzGMP, and incubated for 2, 4, 6 h before being lysed by TRIzol. RNA purification and RT-qPCR were conducted following the protocol described in the Experimental Section. FIG. 3B show IFN response after 2, 4, 6 h of incubation with 5 μM of CDNs. […] Two independent assays were performed in triplicates (n=2). Error bars indicate SD. See Yi et al, Tuning the Innante Immune Response to Cyclic Dinucleotides by Using Atomic Mutagenesis, ChemBioChem, Volume 21 (2020).
As most synthetic c-di-GMP analogues activated IRF3, the inventors analyzed their dose and time dependency for inducing IFN-β mRNA production by using RT-qPCR. RAW 264.7 cells were transfected with 1, 5 and 10 μM of CDNs as described above and incubated for 2, 4 and 6 h. Total RNA was isolated and used for RT-qPCR. As shown in FIGS. 3A-3B, c-di-GMP induced the most IFN-β mRNA production 4 h post transfection, whereas the highest response was observed after 2 h for c-di-tzGMP, c-GthGMP, and c-GtzGMP.
RT-qPCR. RAW 264.7 cells were plated on 48-well plates (2.5×10^5 cells per well) and transfected with CDN using the same method as above after 48 h of incubation at 37° C. Cells were then incubate with regular growth medium for designated time, and total RNA was isolated with TRIzol® reagent and purified with RNeasy mini kit (Qiagen) following the manufacturer's protocol. Following elution, RNA yields were evaluated using a Nanodrop spectrophotometer (Nanodrop technologies). RNA samples were converted to cDNA with SuperScript III First-Strand Synthesis kit (Invitrogen) with random hexamers following the manufacturer's protocol. Quantitative PCR (SYBR Green) analysis was performed in duplicates on an Applied Biosystems 7300 Real-time PCR system (Invitrogen). Transcription level of IFN-β gene of each sample was normalized to housekeeping gene TBP and then to untreated samples (UT) using the delta-delta CT method.
(In general: In qPCR the cycle at which signal appears reflects the starting amount.)

For a further assay, the target named is DncV (Vibrio cholerae serotype O1, UniProt Q9KVG7). Nature of the assay: DncV-mediated CDN synthesis kinetics monitored by HPLC. Type of assay: biochemical. Set-up: made in house; host or cells: Escherichia coli BL21(DE3). Conditions: for k2/k3: product formation vs intermediate degradation; for k2 / k3 / k1: 500 μM NTP, DncV, 37° C., mean±SD; for k2: cyclization of intermediate to product; for k3: degradation of intermediate; for k1: first phosphodiester bond formation; for k1 derived from HPLC analysis: as quoted for comparison with kapp. From the text:
DncV generates CDNs through a series of sequential reactions, which are thought to involve a release-and-rebound process of the intermediate. [7b,17] After the first 3′,5′-phosphodiester bond formation, the linear dinucleotide pppNpN is released and oppositely rebound to the enzyme, after which the second 3′,5′-phosphodiester linkage is made. [7b,16b,18] To ultimately apply and interpret real-time fluorescence measurements, a better understanding of the enzymatic conversion of GTP and its analogues into the corresponding CDNs is therefore required. The reaction time course was consequently analyzed, paying particular attention to the accumulation and consumption of intermediates. DncV was incubated with GTP, tzGTP and thGTP, and the reactions containing each of the corresponding substrates were quenched with calf intestinal alkaline phosphatase (CIAP) at designated time points. The relative concentrations of the starting material (S), uncyclized intermediate (I) and product (P) were then monitored by HPLC. […] Taking into account the unique release-and-rebound process of the uncyclized dinucleotide intermediate, [16b,20] the kinetics of the DncV-mediated CDN syntheses was therefore analyzed according to the model in Scheme 1a and the differential Equations (1)-(4), in which S represents the starting NTP, I1 and I2 respectively represent intermediates pppNpN and degraded intermediate pNpN (I=I1+I2), and P represents the product CDN. Papp (apparent product) stands for the sum of all the dinucleotide species, including linear ones and cyclized products.
Differential Equations (1)-(4) d[S]/dt=−2k1[S]^2 (1) d[I1]/dt=k1[S]^2−[…] (2) d[P]/dt=k2[I3] (3) d[I2]/dt=k3[I1] (4)
[…] of the mixture was subjected to HPLC analysis after filtration. The reaction mixture was separated by Sepax Bio C-18 column (250×10 mm, 5 pmparticle size) with a gradient of 0.5%-25% of 10 mM TEAA, pH7 in Me0H in 20 min at 25° C. on an Agilent 1200 series HPLC system (Agilent Technologies).
Data Analysis and curve fitting. […] The relative concentrations were plotted against time.

Entries after “also recorded” stand apart in the source; their conditions may differ.

Sequence of DncV (Q9KVG7 whole entry): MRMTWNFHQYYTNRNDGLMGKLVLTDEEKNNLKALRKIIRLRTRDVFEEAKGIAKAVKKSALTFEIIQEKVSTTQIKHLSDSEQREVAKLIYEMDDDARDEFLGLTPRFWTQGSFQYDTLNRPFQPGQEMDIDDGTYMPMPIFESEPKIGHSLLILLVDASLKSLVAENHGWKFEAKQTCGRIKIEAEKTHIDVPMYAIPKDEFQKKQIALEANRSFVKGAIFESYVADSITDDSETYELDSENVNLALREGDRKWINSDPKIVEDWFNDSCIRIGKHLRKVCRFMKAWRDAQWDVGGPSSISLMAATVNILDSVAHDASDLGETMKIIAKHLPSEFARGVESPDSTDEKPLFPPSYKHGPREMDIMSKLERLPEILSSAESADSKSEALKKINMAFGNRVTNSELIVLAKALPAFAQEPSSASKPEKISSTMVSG

On to `Nc1nc2c([C@@H]3O[C@@H]4COP(=O)(O)O[C@H]5[C@@H](O)[C@H](n6cnc7c(=O)[nH]c(N)nc76)O[C@@H]5COP(=O)(O)O[C@H]4[C@H]3O)scc2c(=O)[nH]1` [c-G^thGMP], for which the “IRF3 phosphorylation (pIRF3), concentration dependence” value in the assay with STING pathway [1] is “no clear dose-response”. Further, the “IFN-β mRNA production relative to c-di-GMP” value in the assay with STING pathway [2] (RAW 264.7, 5 μM CDN, 2 h incubation) is “tenfold higher”. Moreover, in the assay on STING pathway [2], the “IFN-β mRNA production / IFN response” value was “highest potency; also recorded: earlier and stronger maximum IFN-β response compared to the native c-di-GMP; also recorded: strongest effect on IFN-β induction of all analogues tested; also recorded: faster and greater innate immune response relative to the native signal c-di-GMP”; the “time post transfection of highest IFN-β mRNA production” value (“time post transfection” below) came out at 2 h; the “order of IFN-β induction” value is “c-GthGMP>c-di-tzGMP>c-GtzGMP>c-di-GMP>c-di-thGMP”.
In the case of `Nc1nc2c(ncn2[C@@H]2O[C@@H]3COP(=O)(O)O[C@H]4[C@@H](O)[C@H](n5cnc6c(=O)[nH]c(N)nc65)O[C@@H]4COP(=O)(O)O[C@H]3[C@H]2O)c(=O)[nH]1` [c-di-GMP, reference compound], the “IRF3 phosphorylation (pIRF3)” value in the assay with STING pathway [1] (RAW 264.7, 1 μM CDN) was “did not induce obvious IRF3 activation”. The “IRF3 phosphorylation (pIRF3)” value in the assay with STING pathway [1] (RAW 264.7, 5 and 10 μM CDN) is listed as “comparable efficiency in inducing IRF3 phosphorylation”. This compound registered a k2/k3 at DncV of 116. Further, in the assay on STING pathway [2], the “time post transfection” value was 4 h and the “order of IFN-β induction” value is listed as “c-GthGMP>c-di-tzGMP>c-GtzGMP>c-di-GMP>c-di-thGMP”.
`Nc1nc2c([C@@H]3O[C@@H]4COP(=O)(O)O[C@H]5[C@@H](O)[C@H](c6scc7c(=O)[nH]c(N)nc67)O[C@@H]5COP(=O)(O)O[C@H]4[C@H]3O)scc2c(=O)[nH]1` [c-di-^thGMP]: the “IRF3 phosphorylation (pIRF3), concentration dependence” value in the assay on STING pathway [1] is recorded as “did not trigger observable IRF3 activation at any of the concentrations tested”. Moreover, on DncV, the k2 result is recorded as “(2.32 ± 0.05) × 10^−4 s^−1”, the k3 entry is “(2.91 ± 0.01) × 10^−5 s^−1”, the k1 result is “(3.08 ± 0.03) × 10^−7 μM^−1s^−1” and the “k1 derived from HPLC analysis” value came to 0.31 ± 0.03 M⁻¹ s⁻¹. In addition, the k2/k3 on DncV is recorded as 8.0. Besides, on DncV (listed as c-di-thGMP), the k2 entry is on record as “(2.32±0.05)×10^−3 s^−1”, the k3 entry was “(2.91±0.01)×10^−5 s^−1” and the k1 entry was “(3.08±0.03)×10^−7 μM^−1s^−1”. Further, in the assay with STING pathway [2], the “IFN-β mRNA production / IFN response” value was “minimal; also recorded: essentially inactive” and the “order of IFN-β induction” value is recorded as “c-GthGMP>c-di-tzGMP>c-GtzGMP>c-di-GMP>c-di-thGMP”.
For `Nc1nc2c([C@@H]3O[C@@H]4COP(=O)(O)O[C@H]5[C@@H](O)[C@H](c6snc7c(=O)[nH]c(N)nc67)O[C@@H]5COP(=O)(O)O[C@H]4[C@H]3O)snc2c(=O)[nH]1` [c-di-^tzGMP], the “IRF3 phosphorylation (pIRF3), concentration dependence” value in the assay on STING pathway [1] is “Increasing amounts of phosphorylated IRF3”. Moreover, on DncV, the k2 result is given as “(3.4 ± 0.2) × 10^−3 s^−1”, the k3 result is reported as “(1.3 ± 0.1) × 10^−4 s^−1”, the k1 entry was “(1.26 ± 0.07) × 10^−6 μM^−1s^−1” and the “k1 derived from HPLC analysis” value was 1.26 ± 0.07 M⁻¹ s⁻¹. Further, the k2/k3 on DncV amounted to 26. Further, at DncV (listed as c-di-tzGMP), the k2 result is on record as “(3.4±0.2)×10^−3 s^−1”, the k3 entry is listed as “(1.3±0.1)×10^−4 s^−1” and the k1 entry was “(1.26±0.07)×10^−6 μM^−1s^−1”. In the assay with STING pathway [2], the “IFN-β mRNA production / IFN response” value is “earlier and stronger maximum IFN-β response compared to the native c-di-GMP”; the “time post transfection” value was found to be 2 h; the “order of IFN-β induction” value was “c-GthGMP>c-di-tzGMP>c-GtzGMP>c-di-GMP>c-di-thGMP”.
